Source: ChEMBL document CHEMBL3400053, “trans-3,4-Disubstituted pyrrolidines as inhibitors of the human aspartyl protease renin. Part II: prime site exploration using an oxygen linker” (Bioorg Med Chem Lett, 2015)

How the values were obtained:
Renin [1] = molecular target: T1, Renin (Homo sapiens, UniProt P00797); test: Inhibition of human recombinant renin by TR-FRET assay
T1 sequence (P00797 whole entry): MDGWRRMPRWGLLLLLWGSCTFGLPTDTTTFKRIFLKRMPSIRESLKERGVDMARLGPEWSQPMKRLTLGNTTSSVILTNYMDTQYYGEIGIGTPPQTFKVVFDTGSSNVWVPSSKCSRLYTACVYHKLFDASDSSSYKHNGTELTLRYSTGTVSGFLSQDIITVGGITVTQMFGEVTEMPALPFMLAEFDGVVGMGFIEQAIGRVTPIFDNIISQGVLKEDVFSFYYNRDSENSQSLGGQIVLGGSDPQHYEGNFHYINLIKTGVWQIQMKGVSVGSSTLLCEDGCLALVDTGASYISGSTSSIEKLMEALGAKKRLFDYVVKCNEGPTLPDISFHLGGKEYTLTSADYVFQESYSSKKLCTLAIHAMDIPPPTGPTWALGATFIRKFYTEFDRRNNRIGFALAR

Rattus norvegicus = test: Reduction in mean arterial blood pressure in orally dosed hypertensive telemetered double-transgenic rat overexpressing human renin and angiotensinogen; assay type: functional, organism-based
[2] = Ratio of permeability from basolateral to apical to side over apical to basolateral side in human Caco2 cells; assay type: ADME, cell-based; details: caco-2
Renin [3] = molecular target: T1, Renin; test: Inhibition of human recombinant renin in presence of plasma by TR-FRET assay
Cytochrome P450 3A4 = Cytochrome P450 3A4 (Homo sapiens, UniProt P08684); test: Inhibition of CYP3A4 (unknown origin) using 7-benzyl-4-trifluoromethylcoumarin as fluorometric substrate; assay type: ADME
Cytochrome P450 3A4, sequence (P08684 whole entry): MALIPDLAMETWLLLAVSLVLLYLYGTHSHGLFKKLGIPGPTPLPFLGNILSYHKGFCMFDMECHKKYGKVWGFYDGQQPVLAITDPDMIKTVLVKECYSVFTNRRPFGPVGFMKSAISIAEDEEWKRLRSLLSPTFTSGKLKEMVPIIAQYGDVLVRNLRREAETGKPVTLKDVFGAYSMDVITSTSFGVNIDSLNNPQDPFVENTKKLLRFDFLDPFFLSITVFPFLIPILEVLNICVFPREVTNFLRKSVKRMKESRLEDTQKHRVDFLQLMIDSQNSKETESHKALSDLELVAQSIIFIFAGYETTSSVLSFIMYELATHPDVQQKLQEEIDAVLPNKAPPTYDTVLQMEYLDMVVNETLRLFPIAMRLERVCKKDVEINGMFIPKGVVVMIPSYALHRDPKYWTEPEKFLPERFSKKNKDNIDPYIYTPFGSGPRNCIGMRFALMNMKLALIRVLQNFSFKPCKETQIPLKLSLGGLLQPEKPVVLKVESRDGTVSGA

| IC50 (Renin [1]) [nM] | SMILES | further results |
| --- | --- | --- |
| 9200 | COCCCOc1cc(C(=O)N(C[C@H]2CNC[C@@H]2OC(=O)NCc2ccccc2)C(C)C)ccc1OC | – |
| – | COCCCOc1cc(C(=O)N(C[C@@H]2CNC[C@H]2OC(=O)NCc2ccccc2)C(C)C)ccc1OC | inhibition (Rattus norvegicus): Dose-dependent effect |
| 450 | COCCCOc1cc(C(=O)N(C[C@@H]2CNC[C@H]2Oc2ccc(C(F)(F)F)cc2)C(C)C)ccc1OC (racemic) | – |
| 770 | COCCCOc1cc(C(=O)N(C[C@@H]2CNC[C@H]2OCc2ccccc2)C(C)C)ccc1OC (racemic) | Ratio [2]: 62; IC50 (Renin [3]): 850 nM |
| 3150 | COCCCOc1cc(C(=O)N(C[C@H]2CNC[C@H]2OCc2ccccc2)C(C)C)ccc1OC (racemic) | – |
| 250 | COCCCOc1cc(C(=O)N(C[C@@H]2CNC[C@H]2OCc2cccc(OC)c2)C(C)C)ccc1OC (racemic) | IC50 (Cytochrome P450 3A4): ≤ 200 nM |
| 250 | COCCCOc1cc(C(=O)N(C[C@@H]2CNC[C@H]2OCc2cccc(Oc3ccccc3)c2)C(C)C)ccc1OC (racemic) | – |
| 145 | COCCCOc1cc(C(=O)N(C[C@@H]2CNC[C@H]2OCc2cccc(-c3ccccc3)c2)C(C)C)ccc1OC (racemic) | IC50 (Cytochrome P450 3A4): ≤ 200 nM; IC50 (Renin [3]): 1100 nM |
| 85 | COCCCOc1cc(C(=O)N(C[C@@H]2CNC[C@H]2OCc2cccc(-n3cccc3)c2)C(C)C)ccc1OC (racemic) | IC50 (Cytochrome P450 3A4): ≤ 200 nM |
| 65 | COCCCOc1cc(C(=O)N(C[C@@H]2CNC[C@H]2OCc2cccc(-c3cccc(C)c3)c2)C(C)C)ccc1OC (racemic) | – |
| 350 | COCCCOc1cc(C(=O)N(C[C@@H]2CNC[C@H]2OCc2cccc(-c3cccc(OC)c3)c2)C(C)C)ccc1OC (racemic) | – |
| 65 | COCCCOc1cc(C(=O)N(C[C@@H]2CNC[C@H]2OCc2cccc(-c3ccccc3OC)c2)C(C)C)ccc1OC (racemic) | – |
| 550 | CCOc1ccccc1-c1cccc(CO[C@@H]2CNC[C@H]2CN(C(=O)c2ccc(OC)c(OCCCOC)c2)C(C)C)c1 (racemic) | – |
| 200 | COCCCOc1cc(C(=O)N(C[C@@H]2CNC[C@H]2OCc2cccc3ccccc23)C(C)C)ccc1OC (racemic) | – |
| 90 | COCCCOc1cc(C(=O)N(C[C@@H]2CNC[C@H]2OCc2ccc3ccccc3c2)C(C)C)ccc1OC (racemic) | – |
| 300 | COCCCOc1cc(C(=O)N(C[C@@H]2CNC[C@H]2OC(=O)Nc2cccc(OC)c2)C(C)C)ccc1OC (racemic) | – |
| 80 | COCCCOc1cc(C(=O)N(C[C@@H]2CNC[C@H]2OC(=O)NCc2ccccc2)C(C)C)ccc1OC (racemic) | – |
| 350 | COCCCOc1cc(C(=O)N(C[C@@H]2CNC[C@H]2OC(=O)N(C)Cc2ccccc2)C(C)C)ccc1OC (racemic) | – |
| 1150 | COCCCOc1cc(C(=O)N(C[C@@H]2CNC[C@H]2OC(=O)N2CCCC2)C(C)C)ccc1OC (racemic) | – |
| 90 | COCCCOc1cc(C(=O)N(C[C@@H]2CNC[C@H]2OC(=O)NCc2ccco2)C(C)C)ccc1OC (racemic) | – |
| 100 | COCCCOc1cc(C(=O)N(C[C@@H]2CNC[C@H]2OC(=O)NCc2nccs2)C(C)C)ccc1OC (racemic) | – |
| 45 | COCCCOc1cc(C(=O)N(C[C@@H]2CNC[C@H]2OC(=O)N(C)Cc2cccc3ccccc23)C(C)C)ccc1OC (racemic) | IC50 (Renin [3]): 35 nM |
| 20 | COCCCOc1cc(C(=O)N(C[C@@H]2CNC[C@H]2OC(=O)N(C)Cc2cccc3c2OCO3)C(C)C)ccc1OC (racemic) | – |
| 30 | COCCCOc1cc(C(=O)N(C[C@@H]2CNC[C@H]2OC(=O)N(C)Cc2nc3ccccc3s2)C(C)C)ccc1OC (racemic) | – |
| 9 | COCCCOc1cc(C(=O)N(C[C@@H]2CNC[C@H]2OC(=O)N(C)Cc2ccccc2-n2cccc2)C(C)C)ccc1OC (racemic) | – |
| 80 | COCCCOc1cc(C(=O)N(C[C@@H]2CNC[C@H]2OC(=O)N(C)Cc2ccccc2N2CCCC2)C(C)C)ccc1OC (racemic) | – |
